For one assay, the target named is T1, Cathepsin L (Rattus norvegicus, UniProt P07154).
T1 construct: extracted from a rat liver and completely purified; from tissue; host or cells: rat liver
The experiment in a line: Determination of inhibition activity against cathepsin L (substrate Z-Phe-Arg-MCA). It counts as biochemical. The conditions noted are these: cathepsin L purified from rat liver, pH 5.5, 30° C., 10 minutes. On the procedure:
(§1) Determination of inhibition activity against cathepsin L and cathepsin B:
Cathepsin L that extracted from a rat liver and completely purified in accordance with the method described in J. Biochem., 84, 650-671 (1978) was used, and as a substrate thereof, Z-Phe-Arg-MCA was used.
(§2) Each cathepsin was diluted with a diluent (0.1% Brij 35) to adjust its concentration to 0.3 U (0.1 U: a concentration at which 1.0 nmol of MCA is released per minute at 37° C.). An activator/buffer (340 mM sodium acetate, 60 mM acetic acid, 4 mM disodium EDTA; pH 5.5; 250 μl) was added to the solution (500 μl). After the mixture was incubated for 1 minute at 30° C., a specimen solution of the predetermined concentration and a substrate solution ([…]) were added to conduct a reaction for 10 minutes. The reaction was stopped with a reaction terminator (100 mM sodium monochloroacetate, […] sodium acetate, […] acetic acid; pH 4.3; 1 ml) to determine the fluorescence intensity of aminomethylcoumarin isolated under fluorescence 460 nm in wavelength obtained by excitation at a wavelength of 370 nm using a fluorometer.

A further assay addresses T2, Cathepsin B (Rattus norvegicus, UniProt P00787).
T2 construct: extracted from a rat liver and completely purified; from tissue; host or cells: rat liver
Put plainly: Determination of inhibition activity against cathepsin B (substrate Z-Arg-Arg-MCA). The assay is classed as biochemical. The conditions noted are these: cathepsin B purified from rat liver, pH 5.5, 30° C., 10 minutes. On the procedure:
as §1
One that extracted from a rat liver and completely purified in accordance with the method described in Biochem. Biophys. Res. Commun., 83, 513-520 (1978) was used as cathepsin B, and as a substrate thereof, Z-Arg-Arg-MCA was used.
as §2

Structures can show the parent of a compound that is named as a salt.

A word on the IC50: it is the concentration that inhibits the measured activity by half. A high value points to weaker potency in that assay.

T1 sequence (P07154 114-288 limits assumed): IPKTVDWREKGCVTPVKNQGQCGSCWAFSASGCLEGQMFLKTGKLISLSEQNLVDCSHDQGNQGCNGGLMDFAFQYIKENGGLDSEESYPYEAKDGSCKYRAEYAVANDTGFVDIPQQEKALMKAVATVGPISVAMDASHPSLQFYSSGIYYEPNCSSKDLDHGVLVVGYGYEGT
T1 sequence (P07154 291-334 limits assumed): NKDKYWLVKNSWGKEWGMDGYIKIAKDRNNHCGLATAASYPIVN
T2 sequence (P00787 80-126 limits assumed): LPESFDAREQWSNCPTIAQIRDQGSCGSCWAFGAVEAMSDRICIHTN
T2 sequence (P00787 129-333 limits assumed): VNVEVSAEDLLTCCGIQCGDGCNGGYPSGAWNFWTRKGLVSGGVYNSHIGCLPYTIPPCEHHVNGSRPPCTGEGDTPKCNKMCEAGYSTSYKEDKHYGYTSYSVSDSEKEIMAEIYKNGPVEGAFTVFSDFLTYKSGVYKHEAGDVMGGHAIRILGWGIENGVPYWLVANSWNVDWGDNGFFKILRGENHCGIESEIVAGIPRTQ

Turning to `CN(C)C(=O)[C@H](Cc1ccccc1)NC(=O)[C@H]1O[C@@H]1C(=O)Nc1cccc(CN)c1` [Compound 6, N-{L-3-trans-[3-(Aminomethyl)phenylcarbamoyl]oxirane-2-carbonyl}-L-phenylalanine dimethylamide hydrochloride], the IC50 against Cathepsin L was 200 nM; at Cathepsin B, over 100000 nM.

Turning to `CN(C)C(=O)[C@H](Cc1ccccc1)NC(=O)[C@H]1O[C@@H]1C(=O)Nc1ccc(CN)cc1` [Compound 8, N-{L-3-trans-[4-(Aminomethyl)phenylcarbamoyl]oxirane-2-carbonyl}-L-phenylalanine dimethylamide hydrochloride], the results for the 50% inhibitory concentration (IC50) on Cathepsin L and on Cathepsin B were under 100 nM and over 100000 nM, respectively.

Take `CN(C)C(=O)[C@H](Cc1ccccc1)NC(=O)[C@H]1O[C@@H]1C(=O)N1CCN(Cc2ccccc2)CC1` [Compound 9, N-[L-3-trans-(4-Benzylpiperazin-1-yl-carbonyl)oxirane-2-carbonyl]-L-phenylalanine dimethylamide]: the half-inhibitory concentration (IC50) on Cathepsin L was 850 nM; against Cathepsin B it was over 100000 nM.

At Cathepsin L, `CN(C)C(=O)[C@H](Cc1ccccc1)NC(=O)[C@H]1O[C@@H]1C(=O)N(CCN)c1ccccc1` [Compound 11, N-{L-3-trans-[N-(2-Aminoethyl)-N-phenylcarbamoyl]oxirane-2-carbonyl}-L-phenylalanine dimethylamide hydrochloride] gave a half-maximal inhibitory concentration (IC50) of 2400 nM. In addition, at Cathepsin B, the “IC50 (M) Cathepsin B” value is reported as “No inhibition”.

Take `CC(C)(C)OC(=O)NCc1ccc(NC(=O)[C@H]2O[C@@H]2C(=O)N[C@@H](Cc2ccccc2)C(=O)NCCc2ccccc2)cc1` [Compound 12, N-{L-3-trans-[4-(t-Butoxycarbonylaminomethyl)phenylcarbamoyl]oxirane-2-carbonyl}-L-phenylalanine-2-phenylethylamide]: the IC50 on Cathepsin L was 2.5 nM; against Cathepsin B it was over 10000 nM.

For the compound `CN(C)C(=O)[C@H](Cc1ccccc1)NC(=O)[C@H]1O[C@@H]1C(=O)N1CCN(C(=O)OC(C)(C)C)CC1` [Compound 15, N-[L-3-trans-(4-t-Butoxycarbonylpiperazin-1-yl-carbonyl)-oxirane-2-carbonyl]-L-phenylalanine dimethylamide], the IC50 is 220 nM on Cathepsin L and over 100000 nM against Cathepsin B.

For the compound `CN(C)C(=O)[C@H](Cc1ccccc1)NC(=O)[C@H]1O[C@@H]1C(=O)NC1CCN(Cc2ccccc2)CC1` [Compound 18, N-{L-3-trans-[(1-Benzylpiperidin-4-yl)carbamoyl]oxirane-2-carbonyl}-L-phenylalanine dimethylamide hydrochloride], the IC50 was 290 nM on Cathepsin L and over 100000 nM at Cathepsin B.

As for `CN(C)C(=O)[C@H](Cc1ccccc1)NC(=O)[C@H]1O[C@@H]1C(=O)NCc1ccc(N)cc1` [Compound 20, N-[L-3-trans-(4-Aminobenzylcarbamoyl)oxirane-2-carbonyl]-L-phenylalanine dimethylamide hydrochloride], the IC50 against Cathepsin L is 670 nM; against Cathepsin B it was over 100000 nM.

Turning to `CN(C)C(=O)[C@H](Cc1ccccc1)NC(=O)[C@H]1O[C@@H]1C(=O)NCCNC(=O)OCc1ccccc1` [Compound 22, N-{L-3-trans-[2-(Benzyloxycarbonylamino)ethylcarbamoyl]oxirane-2-carbonyl}-L-phenylalanine dimethylamide], the 50% inhibitory concentration (IC50) at Cathepsin L is 470 nM; against Cathepsin B it was over 100000 nM.

For `CCc1ccc(NC(=O)[C@H]2O[C@@H]2C(=O)N[C@@H](Cc2ccccc2)C(=O)N(C)C)cc1` [Compound 29, N-[L-3-trans-(4-Ethylphenylcarbamoyl)oxirane-2-carbonyl]-L-phenylalanine dimethylamide], the IC50 against Cathepsin L is 2.2 nM; at Cathepsin B, over 100000 nM.

With `CN(C)C(=O)[C@H](Cc1ccccc1)NC(=O)[C@H]1O[C@@H]1C(=O)Nc1ccc(C(C)(C)C)cc1` [Compound 37, N-[L-3-trans-(4-t-Butylphenylcarbamoyl)oxirane-2-carbonyl]-L-phenylalanine dimethylamide], the results for the IC50 against Cathepsin L and on Cathepsin B were 45 nM and over 100000 nM, respectively.

Consider `CN(C)C(=O)[C@H](Cc1ccccc1)NC(=O)[C@H]1O[C@@H]1C(=O)NCCc1csc(N)n1` [Compound 39, N-{L-3-trans-[2-(2-Aminothiazol-4-yl)ethylcarbamoyl]oxirane-2-carbonyl}-L-phenylalanine dimethylamide hydrochloride], for which the concentration for half-maximal inhibition (IC50) on Cathepsin L was 350 nM; against Cathepsin B, over 100000 nM.

Regarding `Cc1cc(NC(=O)[C@H]2O[C@@H]2C(=O)N[C@@H](Cc2ccccc2)C(=O)N(C)C)no1` [Compound 41], the IC50 against Cathepsin L was 33 nM; at Cathepsin B it was over 10000 nM.

For the compound `CN(C)C(=O)[C@H](Cc1ccccc1)NC(=O)[C@H]1O[C@@H]1C(=O)Nc1ccc(CNC(=O)c2ccccc2)cc1` [Compound 44, N-{L-3-trans-[4-(Benzoylaminomethyl)phenylcarbamoyl]oxirane-2-carbonyl}-L-phenylalanine dimethylamide], the half-inhibitory concentration (IC50) on Cathepsin L came to 6 nM; against Cathepsin B, 77000 nM.

Turning to `CN(C)C(=O)[C@H](Cc1ccccc1)NC(=O)[C@H]1O[C@@H]1C(=O)NCCNc1ccc([N+](=O)[O-])cn1` [Compound 46, N-{L-3-trans-[2-(5-Nitropyridin-2-yl)aminoethylcarbamoyl]oxirane-2-carbonyl}-L-phenylalanine dimethylamide], the half-inhibitory concentration (IC50) at Cathepsin L was found to be 34 nM; against Cathepsin B it was 85000 nM.

As to `CN(C)C(=O)[C@H](Cc1ccccc1)NC(=O)[C@H]1O[C@@H]1C(=O)Nc1ccc(Oc2ccccc2)cc1` [Compound 48, N-[L-3-trans-(4-Phenoxyphenylcarbamoyl)oxirane-2-carbonyl]-L-phenylalanine dimethylamide], the concentration for half-maximal inhibition (IC50) against Cathepsin L stood at 60 nM; against Cathepsin B, 45000 nM.

In the case of `CN(C)C(=O)[C@H](Cc1ccccc1)NC(=O)[C@H]1O[C@@H]1C(=O)NCCc1ccccn1` [Compound 56, N-{L-3-trans-[2-(Pyridin-2-yl)ethylcarbamoyl]oxirane-2-carbonyl}-L-phenylalanine dimethylamide], the concentration for half-maximal inhibition (IC50) on Cathepsin L is 47 nM; against Cathepsin B, over 10000 nM.

`CNC(=O)[C@H](Cc1ccccc1)NC(=O)[C@H]1O[C@@H]1C(=O)NCCc1ccccn1` [Compound 62, N-{L-3-trans-[2-(Pyridin-2-yl)ethylcarbamoyl]oxirane-2-carbonyl}-L-phenylalanine methylamide]: the results for the half-inhibitory concentration (IC50) on Cathepsin L and against Cathepsin B were under 1 nM and over 100000 nM, respectively.

For `CN(C)C(=O)[C@H](Cc1ccccc1)NC(=O)[C@H]1O[C@@H]1C(=O)NCCc1ccc(N)cc1` [Compound 73, N-{L-3-trans-[2-(4-Aminophenyl)ethylcarbamoyl]oxirane-2-carbonyl}-L-phenylalanine dimethylamide], the IC50 against Cathepsin L was found to be 94 nM. Further, the “IC50 (M) Cathepsin B” value against Cathepsin B is given as “No inhibition”.

For `CN(C)C(=O)[C@H](Cc1ccccc1)NC(=O)[C@H]1O[C@@H]1C(=O)NCCc1ccc(N)cn1` [Compound 77, N-{L-3-trans-[2-(5-Aminopyridin-2-yl)ethylcarbamoyl]oxirane-2-carbonyl}-L-phenylalanine dimethylamide], the IC50 against Cathepsin L is 82 nM; on Cathepsin B, over 10000 nM.

Turning to `CC(=N)Nc1ccc(CCNC(=O)[C@H]2O[C@@H]2C(=O)N[C@@H](Cc2ccccc2)C(=O)N(C)C)cc1` [Compound 86, N-{L-3-trans-[2-(4-Acetoamidinophenyl)ethylcarbamoyl]oxirane-2-carbonyl}-L-phenylalanine dimethylamide hydrobromide], the IC50 at Cathepsin L was 46 nM; at Cathepsin B, over 10000 nM.

Turning to `CN(C)C(=O)[C@H](Cc1ccccc1)NC(=O)[C@H]1O[C@@H]1C(=O)N1CCN(c2nccc(N)n2)CC1` [Compound 90], the IC50 on Cathepsin L was 97 nM; against Cathepsin B, over 10000 nM.

(Values after patent US6110967A, “Epoxysuccinamide derivative or salt thereof” (Taiho Pharmaceuticals Co., Ltd., priority 1997, dated 2000).)
